Measured values reported in patent US9090659B2, “RHAMM binding peptides” (London Health Sciences Centre Research Inc., priority 2010, dated 2015).
Ends that are not written are not given here. Peptide text beside a SMILES is read from it.

Columns and labels:
RHAMM [1] = target: T1, RHAMM (Mus musculus, UniProt Q00547); assay: KD (nM)
T1 construct: Profinity eXact tag; made in house; host or cells: E. coli BL21 (D3), plasmid pPAL7-RHAMM
Description: Table printed on a drawing sheet, FIG. 2 B
Head of the field: KD (nM)
The patent's description of the figure: FIG. 2 A illustrate the general structure of (a) unmodified tubulin-derived peptides, (b) tubulin-derived peptides conjugated to N-acetyl cysteine, and (c) tubulin-derived peptides conjugated to fluorescein isothiocyanate.
FIG. 2 B is a table of 17 synthesized tubulin-derived peptides, including peptides derivatized with fluorescein or N-acetyl cysteine, tubulin fragment type, calculated and observed mass spectrometry m/z values (m is representative of molecular or atomic mass and z is representative of the number of elementary charges carried by the ion), percent purity and binding constant Kd. FIG. 2 B discloses SEQ ID NOs: 1, 24-25, 2-3, 26-27, 4-9, 28-29, 10-11, 30-31, 12, 32-33, 13-14, 34-35 and 15-17, respectively, in order of appearance.
FIG. 2 B is a table which describes all 17 peptides prepared for this study. Sequences of 17 synthesized peptides encompass the CTTs of different tubulin subtypes as well as sequences directly flanking α1a- (SEQ ID NOs: 6, 7 and 8) and βIIIa-CTT (SEQ ID NOs: 13 and 14). […]
First copying reader's note: The table is continued on the next sheet (printed: continued on page 4/20).
Where the first naming reader finds the target: patent_title: RHAMM binding peptides

RHAMM [2] = target: T2, RHAMM (Mus musculus, UniProt Q00547); assay: SPR binding assay for kinetic constants, RHAMM flowed over immobilized peptides (GWC SPRimager II); conditions: peptide immobilized on sensor plate; RHAMM 500, 750, 1000 nM; 1:1 Langmuir binding model
T2 construct: Profinity eXact tag; made in house; host or cells: E. coli BL21 (D3), plasmid pPAL7-RHAMM
T2 sequence (Q00547 706-766): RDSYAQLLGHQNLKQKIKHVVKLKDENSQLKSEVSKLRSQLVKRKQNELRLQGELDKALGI
Procedure: After peptide screening, […] system was used to determine binding kinetic constants. Thiol-containing peptides at 1 nM concentration in milliQ water were immobilized on a maleimide-functionalized gold-plated chip for 3 hours. Excess peptides were removed by washing with milliQ water. For binding studies, a series of concentrations (500 nM, 750 nM, and 1000 nM) of RHAMM were injected over the immobilized peptides. After a 15 min dissociation phase, the sensor chip surface was regenerated for the next peptide sample injection, via treatment with two 10 min pulse injections of regenerating buffer (2 M NaCl in HBS-EP, pH 7.4) at […]. Baseline returned to the initial value after the regeneration step, confirming the removal of all bound analytes. Data were analyzed and the corresponding dissociation constants (KD) were obtained via non-linear regression fitting to a Langmuir binding model. In all experiments, reference subtraction was performed using data obtained from reference plate (no peptide) and peptide functionalized plate. The binding of the six peptides deduced in the previous section to RHAMM was quantified. Truncation studies indicate that the CTTs (i.e. the last 12 carboxy-terminal residues of S-peptides), were sufficient to induce MAP-directed microtubule assembly, thus placing a label spaced by a linker moiety on the amino terminus of CTT should not affect the peptide-protein interaction. Peptides were immobilized on the sensor plate and RHAMM was flowed over derivatized surface at different concentrations at a constant flow rate of 100 μL/min. FIG. 4 A depicts the resulting sensograms. Again, each sensograms has been corrected by subtracting each curve from a reference sensorgram (data acquired from the sensorgram without immobilized peptide) in order to account for refractive index differences between running buffer and sample solutions. Experimental sensograms were fitted with curves resulting from a kinetic model for a 1:1 Langmuir binding model. […]

RHAMM [3] = target: T2, RHAMM; assay: SPR-based screening of tubulin-derived peptides against immobilized RHAMM (ProteON XPR36); assay type: binding; conditions: peptides 10 μM injected over immobilized RHAMM
Procedure: ProteON XPR36 system was used for the selection and ranking of different tubulin derived peptides against RHAMM. For immobilization of RHAMM, the ProteON GLC sensor chip surfaces were activated by amine coupling using 100 mM EDAC and 24 mM sulfo-NHS. RHAMM (30 μg/mL in sodium bicarbonate buffer, pH 9.7) was injected at a flow a rate of 30 μl/min. A buffer sample was injected on a different sensor plate for use as a reference. Ethanolamine HCl (1M, pH 8.5) was then injected to deactivate any remaining surface groups. Peptides (10 μM in PBS-T, 2% DMSO) were injected to a RHAMM functionalized surface at 50 μL/min for 3 minutes followed by a 10 minute dissociation (i.e. injection of PBS-T buffer) period. The surfaces were regenerated using two injections of 30 μL of 1M NaCl prior to the injection of the next peptide. In all experiments, reference subtraction was performed using data obtained from reference plate (No RHAMM) and RHAMM functionalized plate.
A SPR (surface plasmon resonance)-based screening method was utilized for rapid and accurate determination of potential peptide candidates that are able to recognize the HA-binding domain of RHAMM. Seventeen tubulin-derived peptides were screened, and the resulting sensograms were used to deduce peptides which show affinity to RHAMM. Prior to screening, the optimal condition for ligand immobilization, in this instance RHAMM, to the sensor plate was determined. The optimal pH for the immobilization buffer balances the electrostatic attraction of the protein to the sensor plate while minimizing protein deactivation. In this study the optimal pH for immobilization was determined to be the pH that yielded the highest ligand density. RHAMM was coupled to the sensor plate using sodium bicarbonate buffer of varying pH, at a flow rate of 30 μL/min and with fixed concentration of EDAC and sulfo-NHS. The RHAMM ligand density for each pH immobilization condition was determined from the average SPR response of six measurements and the maximum ligand immobilization occurred at pH 9.7 (FIG. 3 A). Ligand immobilization was slightly lower than pH 10.1 due in part to loss of net charge on RHAMM at its isoelectric point.
After immobilization of RHAMM on the SPR sensor chip, injection of a series of tubulin derived peptides was carried out. Association of the peptides with RHAMM proceeded for 3 minutes and the dissociation in analyte free buffer was carried out for 10 minutes. […] For each peptide injection, control sensograms (no immobilized RHAMM and buffer injection) were subtracted from the test sensograms, and the chip surface was regenerated prior to the next peptide injection in order to remove any remaining bound peptides.

[4] = tested on: ascites-derived human EOC cells; assay: Cell viability (alamarBlue) of ascites-derived human EOC cells; assay type: cell-based; conditions: 7 and 0.7 uM, re-dosing everyday up to 6 days; p<0.05
Procedure: The ability of one RHAMM-binding peptide (SEQ ID NO: 1) to limit the proliferation of patient derived epithelial ovarian cancer tumors and the ability of another RHAMM-binding peptide (SEQ ID NO: 3) to reduce the viability of ascites-derived human EOC cells were examined. In these assays, epithelial ovarian cancer cells (derived from ascites of patients) were plated in a 96-well plate at density 5,000 cells/well and allowed to grow for 24 hours at 37° C. and 5% CO2. Peptides (1 uM and 10 uM) were added to cells on day one and proliferation was measured for 6 days. 1/10th volume of Alamar Blue reagent was added directly to cells in culture medium everyday for six days. Fluorescence was read at 570/590 nm. Data were obtained from mean of two experiments. Cells treated with just DMSO (dimethylsulfoxide) and “no-cell” control samples were included in the experiment.
Primary cells from patient sample EOC were seeded to a 24-well culture dish and 24 hours later treatment was initiated with the RHAMM-binding peptide SEQ ID NO: 3 (7 and 0.7 uM concentrations) or DMSO vehicle control. Re-dosing occurred everyday for up to 6 days and cell viability was assessed by fluorometry using alamarBlue™ reagent (measured in fluorescence units, FU).

affinity to RHAMM in SPR screening (RHAMM [3])	Compound	further results
failed the initial screening	SEQ ID NO: 2: synthesized tubulin-derived 12-residue peptide containing DEXEEZ motif (DSADGEDEGEEY)	–
enhanced affinity to RHAMM	SEQ ID NO: 3: synthetic αIIIc tubulin CTT peptide containing EEXEEZ motif (SVEAEAEEGEEY)	viability of EOC cells (fluorescence units) [4]: reduced viability
enhanced affinity to RHAMM	SEQ ID NO: 12: synthesized tubulin-derived 12-residue peptide of FIG. 2B (EAFEDEEEEIDG)	–

More lines, now with the values behind:

Compound	affinity to RHAMM in SPR screening (RHAMM [3])	further results
C[C@H](NC(=O)[C@H](CO)NC(=O)[C@@H](N)CC(=O)O)C(=O)N[C@@H](CC(=O)O)C(=O)NCC(=O)N[C@@H](CCC(=O)O)C(=O)N[C@@H](CC(=O)O)C(=O)N[C@@H](CCC(=O)O)C(=O)NCC(=O)N[C@@H](CCC(=O)O)C(=O)N[C@@H](CCC(=O)O)C(=O)N[C@@H](Cc1ccc(O)cc1)C(N)=O [SEQ ID NO. 2 | 2, Alpha Ia CTT (438-449)] (H-DSADGEDEGEEY-NH2; N-terminus assumed)	–	Kd (RHAMM [1]): < 1000 nM
CC(C)[C@H](NC(=O)[C@@H](N)CO)C(=O)N[C@@H](CCC(=O)O)C(=O)N[C@@H](C)C(=O)N[C@@H](CCC(=O)O)C(=O)N[C@@H](C)C(=O)N[C@@H](CCC(=O)O)C(=O)N[C@@H](CCC(=O)O)C(=O)NCC(=O)N[C@@H](CCC(=O)O)C(=O)N[C@@H](CCC(=O)O)C(=O)N[C@@H](Cc1ccc(O)cc1)C(N)=O [SEQ ID NO. 3 | 3a, Alpha IIIc CTT (439-450)] (H-SVEAEAEEGEEY-NH2; N-terminus assumed)	–	Kd (RHAMM [1]): 331 nM
CC(C)[C@H](N)C(=O)N[C@@H](CCC(=O)O)C(=O)NCC(=O)N[C@@H](CCC(=O)O)C(=O)NCC(=O)N[C@@H](CCC(=O)O)C(=O)N[C@@H](CCC(=O)O)C(=O)N[C@@H](CCC(=O)O)C(=O)NCC(=O)N[C@@H](CCC(=O)O)C(=O)N[C@@H](CCC(=O)O)C(=O)N[C@@H](Cc1ccc(O)cc1)C(N)=O [SEQ ID NO: 1] (H-VEGEGEEEGEEY-NH2)	–	Kd (RHAMM [2]): 24 nM
C[C@H](NC(=O)[C@H](CCC(=O)O)NC(=O)[C@H](CCC(=O)O)NC(=O)[C@H](CCC(=O)O)NC(=O)[C@H](C)NC(=O)[C@H](CCC(=O)O)NC(=O)[C@H](CCC(=O)O)NC(=O)CNC(=O)[C@H](Cc1ccccc1)NC(=O)[C@H](CC(=O)O)NC(=O)[C@H](CCC(=O)O)NC(=O)[C@@H](N)CCC(=O)O)C(N)=O [SEQ ID NO: 9] (H-EEDFGEEAEEEA-NH2)	–	Kd (RHAMM [2]): 32 nM
CSCC[C@H](NC(=O)[C@H](CC(N)=O)NC(=O)[C@H](CO)NC(=O)[C@H](CCC(=O)O)NC(=O)[C@H](C)NC(=O)[C@H](CCC(=O)O)NC(=O)[C@@H](NC(=O)[C@@H](N)Cc1ccccc1)[C@@H](C)O)C(=O)N[C@@H](CC(N)=O)C(=O)N[C@@H](CC(=O)O)C(=O)N[C@@H](CC(C)C)C(=O)N[C@H](C(N)=O)C(C)C [SEQ ID NO: 14] (H-FTEAESNMNDLV-NH2)	–	Kd (RHAMM [2]): 30 nM
SEQ ID NO: 4: synthesized tubulin-derived 12-residue peptide containing DEXEEZ motif (IDSYEDEDEGEE)	failed the initial screening	–
SEQ ID NO: 10: synthesized tubulin-derived 12-residue peptide containing EEXEDZ motif (GEFEEEEGEDEA)	failed the initial screening	–
SEQ ID NO: 11: synthetic βIV-CTT tubulin peptide containing EEXEEZ motif (GEFEEEAEEEVA-NH2)	enhanced affinity to RHAMM	–
